Data on 7 compounds can be found in patent publication EP0151110B1 (priority 1983, dated 1985).

The nature of series [1]: Skin temperature within intracutaneous wheals compared with skin outside the wheals during anesthesia. The conditions noted are these: for T1 °C Intracutaneous Wheal / °C Difference: HCl-salt; for T1 °C Intracutaneous Wheal: center of wheal, 10 minutes after intracutaneous injection, mean of 6 wheals; for °C Difference: T1 (wheal) minus T2 (controls outside wheal), 10 minutes after injection; for change of temperature over the wheal, in words: Table 4, Conc. 0.25 %. In kind it is in vivo, humans. Here is the method: The means value of 6 wheals for each substance forms the basis for the values. The control values, however, represent the mean value obtained from 4 different sites measured outside the wheals 90 degrees apart and 2 centimeters from the wheal's center.
In the temperature measurements, an Oriel temperature apparatust has been used. This is battery driven and is connected to a detector (diameter, 2,5 mm) and has an accuracy of ± 0.1°C. The temperature of the skin is measured by pressing the detector against the skin with a pressure of 100 grams.
against the skin until a constant temperature is obtained.
In Table 4, T, is the measurement obtained at the center of the wheal, and T2 is the average of four measurements taken 90 degrees apart outside of the wheal and within 2 centimeters of the wheal's center.

For series [2] the following is noted: in vivo. An excerpt: • ^* Trypan blue test; Hoppe et al. (1950), 39, 147-151 "Use Of Trypan Blue And Rabbit Eye Tests For Irritation", J. Amer. Pharm. Ass. (Scient. Ed.), the values are approximate threshold values of tissue irritancy. • ^** LD50, i.e. 50% mortality of mice. • ^*** Studies On The Duration Of Local Anaesthesia: Structure/Activity Relationships In A Series Of Homologous Local Anaesthetics, by G. Aberg, et al., Acta pharmacol. et toxicol., 41 (1977) pp. 432-443, Table 1 at p. 435.

Series [3] relates to periphera nerve ending of the epidermis. The experiment in a line: Infiltration anesthesia, intracutaneous wheals on forearms of man (pin-prick). The conditions noted are these: compared among 12 optically active and inactive structures. Type of series: in vivo. The protocol: By use of intracutaneous wheals it is possible to measure the analgesic effect of an anesthetic on the periphera nerve ending of the epidermis.
This technique gives information about: • (1) the duration of anesthesia. • (2) Epidermal diffusion. • (3) Vascular effects. [formula]
' Infiltration anesthesia on forearms of man. The test solutions were injected intracutaneously on the dorsum of the forearms of 12 healthy volunteers, 20-25 years old. Three wheals were made on each arm in a rotating system in a double-blind fashion. The local anesthetic effect was tested using a pin-prick technique. the "duration of anesthesia" was defined as the time during which none of six pin-pricks into the wheel was felt. The method had been described by Dhuner et al. (1972). Dhuner, K. G., D. H. Lewis, A. Nyquist, D. Selander & E. Stig: Vascular effects of the isomers of mepivacaine, Acta Anaest. Scand. 1972, Supple. 48, 45-52. • * L=Laevo, R=Racemic, D=Dextro • ** C equals grams per 100 ml of solution. • ^*** New isolated stereoisomers [formula]

The test system of a further series is ulnar volar nerves. The experiment in a line: Digital nerve blocks in man (finger blockade). In kind it is in vivo. The conditions noted are these: compared among 12 optically active and inactive structures. The protocol:
^2 Digital nerve blocks in man. The test solutions were injected to block the ulnar volar nerves on the 2nd and 4th fingers of the same volunteers who has participated in the intracutaneous wheal tests described above. The tests were carried out in a double blind fashion in a rotating system, so that each solution was used with equal frequency on each of the blocked fingers. A total of four injections, 1.0 ml per injection, was done in each subject. One week later the procedure was repeated in the same subjects using the remaining test solutions. This method has been described by Dhuner et al. (1972) (for citation see Table 2 footnote 1). To measure the efficacy and duration of the blocks, the individual fingers were pricked rapidly 10 times with a needle algesimeter and the number of painful pricks noted. Each finger was tested every five minutes until complete recovery. The time of complete anesthesia has been called "duration of anesthesia". • ^* i.e. - the time from injection to complete analgesia • ^** i.e. - the number of successful anesthesias of total number of anesthesias performed (no anesthesia is possible if the ulnar volar nerves are not contacted by the anesthetic) • *** new isolated stereoisomers

The nature of a further series: in vivo. The conditions noted are these: mouse, iv, read-out: LD50** I.v. (intravenous) mg/kg/mouse.
For series [4] the following is noted: racemate; from Aberg et al., Acta pharmacol. et toxicol. 41 (1977), Table 1 at p. 435; cited from earlier work.
The conditions of series [5]: racemate; from Aberg et al., Acta pharmacol. et toxicol. 41 (1977), Table 1 at p. 435; cited from earlier work. The source holds these as a separate data set.

Consider `CCCCN1CCCCC1C(=O)Nc1c(C)cccc1C` (racemic) [No. 4, N-n-butylpipecolic acid-2,6-xylidide], for which, in series [1] (Conc. 0.25 %), the “T1 °C Intracutaneous Wheal” value was 31.5 °C and the “°C Difference” value is −0.6 °C.

`CCN1CCCC[C@@H]1C(=O)Nc1c(C)cccc1C` [R-N-2-ethyl-pipecolic acid-2,6-xylidide]: in series [1] (Conc. 1.0 %), the “T1 °C Intracutaneous Wheal” value is 31.2 °C and the “°C Difference” value is “+0.5 °C”.

In the case of `CCCN1CCCC[C@H]1C(=O)Nc1c(C)cccc1C` [L-N-n-propylpipecolic acid-2,6-xylidide], the “Tissue* toxicity limits in %” value in series [2] is reported as 0.75%. Further, in series [1] (Conc. 0.25 %), the “T1 °C Intracutaneous Wheal” value is 30.0 °C and the “°C Difference” value is −1.2 °C. The “change of temperature over the wheal, in words” value in series [1] is “lowers the temperature over its wheal to approximately the same extent as the combination of lidocaine with adrenaline”. For the same compound, the “anesthetic effects, intracutaneous wheal (Table 2), in words” value in series [3] is given as “gives the optimal increase of anesthetic effects”. Also, the “anesthetic effects, finger-blockade (Table 3), in words” value in the series on ulnar volar nerves is reported as “gives the optimal increase of anesthetic effects”.

For `CCCN1CCCCC1C(=O)Nc1c(C)cccc1C` (racemic) [compound 3], the “Tissue* toxicity limits in %” value in series [2] is reported as 1.5%.

Turning to `Cc1cccc(C)c1NC(=O)C1CCCCN1C` (racemic) [compound 1], the “Tissue* toxicity limits in %” value in series [2] was 3.5%. The LD50 in “in vivo” turned out to be 40.3 mg/kg.

For the compound `CCN1CCCCC1C(=O)Nc1c(C)cccc1C` (racemic) [compound 2], the “Tissue* toxicity limits in %” value in series [2] is recorded as 3.0%. The LD50 in “in vivo” was determined as 21 mg/kg.

Regarding `CCCN1CCCCC1C(=O)Nc1c(C)cccc1C` (racemic) [No. 3, N-n-propylpipecolic acid-2,6-xylidide], in series [1] (Conc. 0.25 %), the “T1 °C Intracutaneous Wheal” value was 33.1 °C and the “°C Difference” value is −0.1 °C. Besides, in series [1], the “change of temperature over the wheal, in words” value is recorded as “practically no change in temperature”. Also, the “Tissue toxicity (tissue irritancy), in words” value in series [4] was “tissue irritating”. Also, the “solubility in water, in words” value in series [5] was “slightly soluble in water”.
